Consider 20 compounds from PubChem BioAssay AID330 (DTP/NCI, 2004).

In this experiment the test system is P388 leukemia ip, CD2F1 mice, survival T/C. The experiment is described as follows: NCI In Vivo Anticancer Drug Screen. Data for tumor model P388 Leukemia (intraperitoneal) in CD2F1 (CDF1) mice. The note with it: endpoint: median survival time, higher = longer survival. A digest of the protocol:
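Mice carrying the transplanted tumor received test compound or vehicle. Survival was recorded in each group, and the value is the treated-group measurement divided by that of the vehicle-treated control group.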

Setting [1] is: dose: 50.0 mg/kg/injection, schedule: Q01DX005 (ip), vehicle: Klucel (hydroxypropylcellulose) (HPC).
[2] abbreviates: dose: 100.0 mg/kg/injection, schedule: Q01DX005 (ip), vehicle: Klucel (hydroxypropylcellulose) (HPC).
[3] abbreviates: dose: 200.0 mg/kg/injection, schedule: Q01DX005 (ip), vehicle: Klucel (hydroxypropylcellulose) (HPC).
The mark [4] stands for this setting: dose: 6.25 mg/kg/injection, schedule: Q01DX009 (ip), vehicle: saline.
[5] abbreviates: dose: 12.5 mg/kg/injection, schedule: Q01DX009 (ip), vehicle: saline.
Where [6] appears, read: dose: 25.0 mg/kg/injection, schedule: Q01DX009 (ip), vehicle: saline.
The mark [7] stands for this setting: dose: 50.0 mg/kg/injection, schedule: Q01DX009 (ip), vehicle: saline.
The mark [8] stands for this setting: dose: 50.0 mg/kg/injection, schedule: Q01DX005 (ip), vehicle: saline with Tween-80.
Setting [9] is: dose: 100.0 mg/kg/injection, schedule: Q01DX005 (ip), vehicle: saline with Tween-80.
Where [10] appears, read: dose: 200.0 mg/kg/injection, schedule: Q01DX005 (ip), vehicle: saline with Tween-80.
The mark [11] stands for this setting: dose: 12.5 mg/kg/injection, schedule: Q01DX009 (ip), vehicle: distilled water + Tween-80.
Where [12] appears, read: dose: 25.0 mg/kg/injection, schedule: Q01DX009 (ip), vehicle: distilled water + Tween-80.
Setting [13] is: dose: 60.0 mg/kg/injection, schedule: Q01DX005 (ip), vehicle: Klucel (hydroxypropylcellulose) (HPC).
Where [14] appears, read: dose: 120.0 mg/kg/injection, schedule: Q01DX005 (ip), vehicle: Klucel (hydroxypropylcellulose) (HPC).
The mark [15] stands for this setting: dose: 240.0 mg/kg/injection, schedule: Q01DX005 (ip), vehicle: Klucel (hydroxypropylcellulose) (HPC).

Values joined by “and” are separate entries in the source; they are usually repeats but may differ in a detail not shown here. Equal entries are not always repeated. Inconclusive results and toxic doses are left out. Peptide text beside a SMILES is read from it. * marks the point of attachment. Trt = c1ccc(C(c2ccccc2)(c2ccccc2)*)cc1; Cbz = O=C(OCc1ccccc1)*; OtBu = CC(C)(C)O*

For the compound `Cc1ccccc1NCN1C(=O)S/C(=C2\C(=O)N(C)c3ccc(Br)cc32)C1=O`, the T/C reads like this: under setting [1], 95 % of control; under setting [2], 92 % of control; under setting [3], 90 % of control.
`CC(=O)n1c2ccccc2c2c(C)c3cnccc3c(C)c21`: the T/C by setting is: (dose: 12.5 mg/kg/injection, schedule: Q04DX002 (ip), vehicle: saline with Tween-80) 114 % of control; (dose: 25.0 mg/kg/injection, schedule: Q04DX002 (ip), vehicle: saline with Tween-80) 124 % of control; (dose: 50.0 mg/kg/injection, schedule: Q04DX002 (ip), vehicle: saline with Tween-80) 152 % of control; (dose: 100.0 mg/kg/injection, schedule: Q04DX002 (ip), vehicle: saline with Tween-80) 171 % of control; (dose: 200.0 mg/kg/injection, schedule: Q04DX002 (ip), vehicle: saline with Tween-80) 196 % of control.
On to `N#CC1=C(C#N)Sc2nc3cc(Cl)ccc3nc2S1`, for which the T/C is, setting by setting: under setting [4], 109 % of control; under setting [5], 115 % of control and 95 % of control; under setting [6], 108 % of control; under setting [7], 115 % of control.
For the compound `[CH3][Sn]1([CH3])[O]P(=O)(c2ccccc2)[O]1`, the T/C by setting is: (dose: 6.25 mg/kg/injection, schedule: Q01DX009 (ip), vehicle: saline with Tween-80) 99 % of control; under setting [4], 110 % of control; (dose: 12.5 mg/kg/injection, schedule: Q01DX009 (ip), vehicle: saline with Tween-80) 96 % of control; under setting [5], 112 % of control; (dose: 25.0 mg/kg/injection, schedule: Q01DX009 (ip), vehicle: saline with Tween-80) 107 % of control; under setting [6], 119 % of control. In addition, the T/C was 105 % of control (dose: 50.0 mg/kg/injection, schedule: Q01DX009 (ip), vehicle: saline with Tween-80); 112 % of control and 120 % of control under setting [7].
In the case of `COc1ccc2[nH]c(=O)c(Br)c(C)c2c1`, the T/C was 101 % of control under setting [8], 95 % of control under setting [9] and 100 % of control under setting [10].
On to `COC(=O)C1=C(C(=O)OC)C2OC1C(COC(=O)NC1CCCCC1)=C2COC(=O)NC1CCCCC1`, for which the T/C is 89 % of control under setting [11]; 87 % of control under setting [12]; 89 % of control (dose: 50.0 mg/kg/injection, schedule: Q01DX009 (ip), vehicle: distilled water + Tween-80); 87 % of control (dose: 100.0 mg/kg/injection, schedule: Q01DX009 (ip), vehicle: distilled water + Tween-80); 101 % of control (dose: 200.0 mg/kg/injection, schedule: Q01DX009 (ip), vehicle: distilled water + Tween-80).
With `N#Cc1ccc(NN=NCCS(=O)CCCl)cc1` (configuration not stated), the T/C (dose: 6.25 mg/kg/injection, schedule: Q01DX009 (ip), vehicle: distilled water + Tween-80) is 100 % of control; the T/C under setting [11] is 111 % of control; the T/C under setting [12] is 112 % of control.
As for `O=C1/C(=C/c2ccccc2)CCCC12C(c1ccccc1)N2Cc1ccccc1` (configuration not stated), the T/C was 91 % of control under setting [13], 90 % of control under setting [14] and 88 % of control under setting [15].
On to `O=C(O)c1cc(Nc2nc(Cl)nc(Cl)n2)ccc1-c1c2ccc(=O)cc-2oc2cc(O)ccc12`, for which the T/C reads like this: (dose: 60.0 mg/kg/injection, schedule: Q01DX005 (ip), vehicle: saline with Tween-80) 115 % of control; (dose: 120.0 mg/kg/injection, schedule: Q01DX005 (ip), vehicle: saline with Tween-80) 119 % of control; (dose: 240.0 mg/kg/injection, schedule: Q01DX005 (ip), vehicle: saline with Tween-80) 117 % of control.
As for `CC1=C(C(=O)Nc2ccccc2Cl)C(c2cccc([N+](=O)[O-])c2)C(C(=O)Nc2ccccc2Cl)=C(C)N1`, the T/C reads like this: (dose: 15.0 mg/kg/injection, schedule: Q01DX005 (ip), vehicle: Klucel (hydroxypropylcellulose) (HPC)) 93 % of control; (dose: 30.0 mg/kg/injection, schedule: Q01DX005 (ip), vehicle: Klucel (hydroxypropylcellulose) (HPC)) 90 % of control; under setting [13], 88 % of control.
`COc1ccc(-c2cc(=O)c3c(O)cc(OC)cc3o2)cc1`: the T/C by setting is: (dose: 100.0 mg/kg/injection, schedule: Q04DX003 (ip), vehicle: saline with Tween-80) 95 % of control; (dose: 200.0 mg/kg/injection, schedule: Q04DX003 (ip), vehicle: saline with Tween-80) 90 % of control; (dose: 400.0 mg/kg/injection, schedule: Q04DX003 (ip), vehicle: saline with Tween-80) 90 % of control.
Take `O=S(=O)(N/N=C/c1ccncc1)c1ccccc1`: the T/C is 110 % of control and 121 % of control (dose: 12.5 mg/kg/injection, schedule: Q01DX009 (ip), vehicle: other); 116 % of control (dose: 25.0 mg/kg/injection, schedule: Q01DX009 (ip), vehicle: other); 157 % of control (dose: 100.0 mg/kg/injection, schedule: Q01DX009 (ip), vehicle: other).
Turning to `Clc1nc2ccccc2[nH]1`, the T/C was 101 % of control under setting [6]; 99 % of control under setting [7]; 95 % of control (dose: 100.0 mg/kg/injection, schedule: Q01DX009 (ip), vehicle: saline); 98 % of control (dose: 200.0 mg/kg/injection, schedule: Q01DX009 (ip), vehicle: saline).
`C=C(C)CCN1C(=O)NC(C)(C)C1O` (configuration not stated): the T/C (dose: 50.0 mg/kg/injection, schedule: Q01DX005 (ip), vehicle: saline) is 100 % of control; the T/C (dose: 100.0 mg/kg/injection, schedule: Q01DX005 (ip), vehicle: saline) is 107 % of control; the T/C (dose: 200.0 mg/kg/injection, schedule: Q01DX005 (ip), vehicle: saline) was 101 % of control.
`COc1ccc(C2=C(Cl)C(=O)N(c3ccc(Cl)cc3)C(=O)C2(Cl)Cl)cc1`: the T/C was 101 % of control (dose: 100.0 mg/kg/injection, schedule: Q04DX002 (ip), vehicle: Klucel (hydroxypropylcellulose) (HPC)); 94 % of control (dose: 200.0 mg/kg/injection, schedule: Q04DX002 (ip), vehicle: Klucel (hydroxypropylcellulose) (HPC)); 97 % of control (dose: 400.0 mg/kg/injection, schedule: Q04DX002 (ip), vehicle: Klucel (hydroxypropylcellulose) (HPC)).
Take `Cc1cccc2c(/C=C/c3ccc(N(C)C)cc3)ccnc12`: the T/C reads like this: (dose: 25.0 mg/kg/injection, schedule: Q01DX009 (ip), vehicle: Klucel (hydroxypropylcellulose) (HPC)) 105 % of control; (dose: 50.0 mg/kg/injection, schedule: Q01DX009 (ip), vehicle: Klucel (hydroxypropylcellulose) (HPC)) 105 % of control and 117 % of control; (dose: 100.0 mg/kg/injection, schedule: Q01DX009 (ip), vehicle: Klucel (hydroxypropylcellulose) (HPC)) 117 % of control; (dose: 200.0 mg/kg/injection, schedule: Q01DX009 (ip), vehicle: Klucel (hydroxypropylcellulose) (HPC)) 106 % of control.
For `CC(=O)C(=C/C=C/c1ccccc1)C(C)=O`, the T/C is 90 % of control under setting [8], 98 % of control under setting [9] and 100 % of control under setting [10].
On to `Cc1ccc(S(=O)(=O)CCC(=O)c2ccccc2)cc1`, for which the T/C is, setting by setting: (dose: 100.0 mg/kg/injection, schedule: Q04DX003 (ip), vehicle: saline) 104 % of control; (dose: 200.0 mg/kg/injection, schedule: Q04DX003 (ip), vehicle: saline) 100 % of control; (dose: 400.0 mg/kg/injection, schedule: Q04DX003 (ip), vehicle: saline) 101 % of control.
`CCN1C(=O)NC(=O)C(CC)(N2CCCCC2)C1=O` (configuration not stated): the T/C under setting [1] was 111 % of control, the T/C under setting [2] was 98 % of control and the T/C under setting [3] is 104 % of control.
As to `CC(C)CC(NC(=O)C(CSC(c1ccccc1)(c1ccccc1)c1ccccc1)NC(=O)OCc1ccccc1)C(=O)NC(C(=O)OC(C)(C)C)C(C)C` (stereo not drawn) (Cbz-Cys(Trt)-Leu-Val-OtBu; configuration not given here), the T/C under setting [13] is 96 % of control, the T/C under setting [14] is 100 % of control and the T/C under setting [15] was 107 % of control.
